The record followed here is US10188634B2, “3-(3H-imidazo[4,5-C]pyridin-2-yl)-1 H-pyrazolo[4,3-B]pyridines and therapeutic uses thereof” (Samumed, LLC, priority 2015, dated 2019).

Holding throughout (type): cell-based
In assay [1] the test system is LL29 cells (primary human fibroblasts derived from IPF patients) treated with TGF-β1, α-smooth muscle actin. Nature of the assay: Inhibition of the fibrotic process: αSMA staining in TGF-β1 treated primary human fibroblasts from IPF patients (LL29 cells). Particulars: Fibroblast, 96 h; for EC50: LL29 cells treated with TGF-β1 (20 ng/mL), 4 days. The source says: Representative compounds were screened using primary human fibroblasts (derived from IPF patients) treated with TGF-β1 to determine their ability to inhibit the fibrotic process.
Human Fibroblast Cell Culture: Primary human fibroblasts derived from IPF patients (LL29 cells) [^1Xiaoqiu Liu, et.al., “Fibrotic Lung Fibroblasts Show Blunted Inhibition by cAMP Due to Deficient cAMP Response Element-Binding Protein Phosphorylation”, Journal of Pharmacology and Experimental Therapeutics (2005), 315(2), 678-687; ^2Watts, K. L., et.al., “RhoA signaling modulates cyclin D1 expression in human lung fibroblasts; implications for idiopathic pulmonary fibrosis”, Respiratory Research (2006), 7(1), 88] were obtained from American Type Culture Collection (ATCC) and expanded in F12 medium supplemented with 15% Fetal Bovine Serum and Penicillin/Streptomycin.
Compound Screening: Each compound was dissolved in DMSO as a 10 mM stock and used to prepare compound source plates. […] LL29 cells are plated at 1,500 cells/well in 80 μL/well F12 medium supplemented with 1% Fetal Bovine Serum. One hour after addition of the cells, TGF-β1 (Peprotech; 20 ng/mL) was added to the plates to induce fibrosis (ref. 1 and 2 above). Wells treated with TGF-β1 and containing DMSO were used as controls. Cells were incubated at 37° C. and 5% CO2 for 4 days. Following incubation for 4 days, SYTOX green nucleic acid stain (Life Technologies [Thermo Fisher Scientific]) was added to the wells at a final concentration of 1 μM and incubated at room temperature for 30 min. Cells were then fixed using 4% formaldehyde (Electron Microscopy Sciences), washed 3 times with PBS followed by blocking and permeabilization using 3% Bovine Serum Albumin (BSA; Sigma) and 0.3% Triton X-100 (Sigma) in PBS. Cells were then stained with antibody specific to α-smooth muscle actin (αSMA; Abcam) (ref. 1 and 2 above) in 3% Bovine Serum Albumin (BSA; Sigma) and 0.3% Triton X-100 (Sigma) in PBS, and incubated overnight at 4° C. Cells were then washed 3 times with PBS, followed by incubation with Alexa Flor-647 conjugated secondary antibody (Life Technologies [Thermo Fisher Scientific]) and DAPI at room temperature for 1 hour. Cells were then washed 3 times with PBS and plates were sealed for imaging. αSMA staining was imaged by excitation at 630 nm and emission at 665 nm and quantified using the Compartmental Analysis program on the CellInsight CX5 (Thermo Scientific). Dead or apoptotic cells were excluded from analysis based on positive SYTOX green staining. % of total cells positive for αSMA were counted in each well and normalized to the average of 11 wells treated with TGF-β1 on the same plate using Dotmatics' Studies Software. The normalized averages (fold change over untreated) of 3 replicate wells for each compound concentration were used to create dose-responses curves and EC50 values were calculated using non-linear regression curve fit in the Dotmatics' Studies Software. For EC50 of >10 μM, the percent inhibition at 10 μM is provided.

In assay [2] the test system is IL-6 in THP-1 cells. The experiment in a line: Inhibition of IL-6 in LPS-stimulated THP-1 human monocyte cells (HTRF). Particulars: 500 ng/mL LPS, 22 hours, IL-6 HTRF. As to the method: Human Monocyte Cell Culture: Human monocyte cell line (THP-1 cells; Catalog # TIB-202, ATCC, Manassas, Va.) were cultured in Roswell Park Memorial Institute (RPMI) 1640 Medium (Catalog #21870-100, Buffalo, N.Y.) with 1% L-glutamine, 1% HEPES, 1% Sodium Pyruvate, 2% Sodium Bicarbonate supplemented with 100 units/mL penicillin, 50 μg/mL streptomycin, 2-mercaptoethanol (0.05 mM) [basal medium] and 10% fetal bovine serum (Catalog #16140089, Life Technologies, Carlsbad, Calif.) at 37° C. and 5% CO2.
Compound Screening: THP-1 cells were cultured in basal media with 1% FBS for 24 hours before the start of the assay. Each compound was dissolved in DMSO as a 10 mM stock and used to prepare compound source plates. Serial dilution (1:3, 10-point dose-response curves starting from 10 μM) and compound transfer was performed using the ECHO 550 (Labcyte, Sunnyvale, Calif.) into 384-well white low volume assay plates (Greiner Bio-One) with appropriate DMSO backfill for a final DMSO concentration of 0.1%. THP-1 cells were plated at 5000 cells/well in the 384-well plates and incubated at 37° C. for 2 h. 500 ng/mL of LPS was added after 2 hours and cells were incubated for another 22 hours at 37° C. Plates were spun in a centrifuge for 1 minute at […] and a mixture of anti-IL6 XL665, and anti-IL6 Cryptate diluted in reconstitution buffer (Cisbio Inc.) was added to each well. Following incubation for 3 hrs at room temperature, Homogeneous Time-Resolved Fluorescence (HTRF) was measured using the Envision (Perkin Elmer) at 665 nm and […]. The ratio of fluorescence at 665 nm to 620 nm was used as a readout for IL6 quantification. All samples were processed in duplicate. Readings were normalized to DMSO treated cells and normalized activities were utilized for EC50 calculations using the dose-response log (inhibitor) vs. response -variable slope (four parameters) nonlinear regression feature available in GraphPad Prism 5.0 (or Dotmatics). For EC50 of >10 μM, the percent inhibition at 10 μM is provided.

The subject of assay [3] is SW480 colon cancer cells. Nature of the assay: Cell viability assay (CellTiter-Blue) in SW480 colon cancer cells. Particulars: Homo sapiens, 96 h; for EC50: four days incubation, CellTiter-Blue cell viability; for inhibition at 10 µM: four days, CellTiter-Blue, read-out: percent inhibition at 10 μM (given for EC50 of >10 μM). As to the method:
Representative compounds were screened using the following assay procedure to assess the effect on cell viability as described below.
Each compound was dissolved in DMSO as a 10 mM stock and used to prepare compound source plates. Serial dilution (1:3, 8-point dose-response curves from 10 μM to 0.004 μM) and compound transfer was performed using the ECHO 550 (Labcyte, Sunnyvale, Calif.) into 96-well clear bottom, black-walled plates (Corning-Costar).
Approximately 2×10^3 SW480 colon cancer cells were seeded into each well and allowed to incubate in the presence or absence of compound for four days at 37° C./5% CO2. Eight replicates of DMSO-treated cells served as controls and cells treated with compound were performed in duplicate.
After incubation, 20 μL of CellTiter-Blue (Promega) was added to each well allowed to incubate for approximately 3 hours. This reagent was a buffered solution which contains resazurin, metabolically active cells were able to reduce rezarurin (blue) into resorufin (pink) which was highly fluorescent. This measured fluorescence was used as a readout for cell viability.
After incubation, the plates were read at Ex 560 nm Em 590 nm (Cytation 3, BioTek). Dose-response curves were generated and EC50 concentration values were calculated using non-linear regression curve fit in the GraphPad Prism (San Diego, Calif.) or Dotmatics' Studies Software (Bishops Stortford, UK). For EC50 of >10 μM, the percent inhibition at 10 μM is provided.
Background: The colour change of resazurin is a common sign of viable cells or microbes.

Assay [4] concerns Wnt activity (Sp5-Luc reporter, human Sp5 promoter with eight TCF/LEF binding sites) in SW480 colon carcinoma cells. Nature of the assay: Screening assay for Wnt activity: Sp5-Luc reporter gene assay in SW480 cells. The following applies: 10-point dose-response starting from 10 μM, overnight incubation. The text has this:
The screening assay for Wnt activity is described as follows. Reporter cell lines can be generated by stably transducing cancer cell lines (e.g., colon cancer) or primary cells (e.g., IEC-6 intestinal cells) with a lentiviral construct that includes a Wnt-responsive promoter driving expression of the firefly luciferase gene.
SW480 colon carcinoma cells were transduced with a lentiviral vector expressing luciferase with a human Sp5 promoter consisting of a sequence of eight TCF/LEF binding sites. SW480 cells stably expressing the Sp5-Luc reporter gene and a hygromycin resistance gene were selected by treatment with 150 μg/mL of hygromycin for 7 days. These stably transduced SW480 cells were expanded in cell culture and used for all further screening activities. Each compound was dissolved in DMSO as a 10 mM stock and used to prepare compound source plates. Serial dilution (1:3, 10-point dose-response curves starting from 10 μM) and compound transfer was performed using the ECHO 550 (Labcyte, Sunnyvale, Calif.) into 384-well white solid bottom assay plates (Greiner Bio-One) with appropriate DMSO backfill for a final DMSO concentration of 0.1%. For Sp5-Luc reporter gene assays, the cells were plated at 4,000 cells/well in 384-well plates with medium containing 1% fetal bovine serum and incubated overnight at 37° C. and 5% CO2. Following incubation, 20 μl of BrightGlo luminescence reagent (Promega) was added to each well of the 384-well assay plates. The plates were placed on an orbital shaker for 2 min and then luminescence was quantified using the Envision (Perkin Elmer) plate reader. Readings were normalized to DMSO only treated cells, and normalized activities were utilized for EC50 calculations using the dose-response log (inhibitor) vs. response -variable slope (four parameters) nonlinear regression feature available in GraphPad Prism 5.0 (or Dotmatics). For EC50 of >10 μM, the percent inhibition at 10 μM is provided.

The structures appear in SMILES notation. Where only a bound is given, the exact number is not on record here.

In the case of `CN1CCN(c2cncc3[nH]c(-c4n[nH]c5ccc(-c6cncc(OC7CCCCC7)c6)nc45)nc23)CC1` [Compound 611, 5-(5-(Cyclohexyloxy)pyridin-3-yl)-3-(7-(4-methylpiperazin-1-yl)-3H-imidazo[4,5-c]pyridin-2-yl)-1H-pyrazolo[4,3-b]pyridine], the EC50 in assay [1] was 1.33 µM; in assay [2], 8.78 µM; in assay [3], 2.54 µM; in assay [4], 1.92 µM.

Regarding `CN1CCN(c2cncc3[nH]c(-c4n[nH]c5ccc(-c6cncc(OCc7ccccc7)c6)nc45)nc23)CC1` [Compound 618, 5-(5-(Benzyloxy)pyridin-3-yl)-3-(7-(4-methylpiperazin-1-yl)-3H-imidazo[4,5-c]pyridin-2-yl)-1H-pyrazolo[4,3-b]pyridine], the 50% effective concentration (EC50) in assay [1] was 1.9 µM; in assay [2], 1.6 µM; in assay [3] it was 4.6 µM; in assay [4] it was 4.63 µM.

Turning to `c1cc(-c2cncc3[nH]c(-c4n[nH]c5ccc(-c6cncc(OCCN7CCCC7)c6)nc45)nc23)co1` [Compound 646, 3-(7-(Furan-3-yl)-3H-imidazo[4,5-c]pyridin-2-yl)-5-(5-(2-(pyrrolidin-1-yl)ethoxy)pyridin-3-yl)-1H-pyrazolo[4,3-b]pyridine], the EC50 is 3.84 µM in assay [1], 0.435 µM in assay [2], above 10 µM in assay [3] and 4.62 µM in assay [4]. Moreover, the inhibition at 10 µM in assay [3] is 33.1%.

Turning to `COc1cncc(-c2ccc3[nH]nc(-c4nc5c(-c6ccoc6)cncc5[nH]4)c3n2)c1` [Compound 648, 3-(7-(Furan-3-yl)-3H-imidazo[4,5-c]pyridin-2-yl)-5-(5-methoxylpyridin-3-yl)-1H-pyrazolo[4,3-b]pyridine], the EC50 was 0.404 µM in assay [1], 7.04 µM in assay [2], 1.77 µM in assay [3] and 0.849 µM in assay [4].

Turning to `Cc1ccc(-c2cncc3[nH]c(-c4n[nH]c5ccc(-c6cncc(OC7CCCCC7)c6)nc45)nc23)s1` [Compound 691, 5-(5-(Cyclohexyloxy)pyridin-3-yl)-3-(7-(5-methylthiophen-2-yl)-3H-imidazo[4,5-c]pyridin-2-yl)-1H-pyrazolo[4,3-b]pyridine], the EC50 in assay [1] was found to be 1.75 µM; in assay [2] it was 0.003 µM; in assay [3], 4.63 µM; in assay [4], 4.03 µM.

Turning to `Cc1ncc(-c2ccc3[nH]nc(-c4nc5c(-c6cc(F)cc(NCCN(C)C)c6)cncc5[nH]4)c3n2)n1C` [Compound 737, N^1-(3-(2-(5-(1,2-Dimethyl-1H-imidazol-5-yl)-1H-pyrazolo[4,3-b]pyridin-3-yl)-3H-imidazo[4,5-c]pyridin-7-yl)-5-fluorophenyl)-N^2,N^2-dimethylethane-1,2-diamine], the EC50 in assay [1] was 8.95 µM; in assay [2] it was 1.17 µM; in assay [3] it was above 10 µM; in assay [4], 3.85 µM. The inhibition at 10 µM in assay [3] was found to be 46.5%.

As to `CN(C)CCNc1cc(F)cc(-c2cncc3[nH]c(-c4n[nH]c5ccc(-c6cncc(OCc7ccccc7)c6)nc45)nc23)c1` [Compound 746, N^1-(3-(2-(5-(5-(Benzyloxy)pyridin-3-yl)-1H-pyrazolo[4,3-b]pyridin-3-yl)-3H-imidazo[4,5-c]pyridin-7-yl)-5-fluorophenyl)-N^2,N^2-dimethylethane-1,2-diamine], the EC50 is 2.93 µM in assay [1], 1.6 µM in assay [2], 3.3 µM in assay [3] and 2.72 µM in assay [4].

Regarding `CN(C)CCNc1cc(F)cc(-c2cncc3[nH]c(-c4n[nH]c5ccc(-c6cnccn6)nc45)nc23)c1` [Compound 748, N^1-(3-Fluoro-5-(2-(5-(pyrazin-2-yl)-1H-pyrazolo[4,3-b]pyridin-3-yl)-3H-imidazo[4,5-c]pyridin-7-yl)phenyl)-N^2,N^2-dimethylethane-1,2-diamine], the EC50 in assay [1] is above 10 µM; in assay [2] it was 4.23 µM; in assay [3], 3.74 µM; in assay [4], 3.95 µM. Also, the inhibition at 10 µM in assay [1] (LL29 cells treated with TGF-β1, 4 days, at 10 μM, read-out: percent inhibition in brackets (given for EC50 >10 μM)) came out at 41.3%.

The EC50 is the concentration needed to bring the measured effect to its halfway point. Read a low EC50 as higher potency in that assay. In general, inhibition refers to the share of the control response that was lost under treatment.
